Assay [1] concerns F32-ART5 and F32-TEM parasites. In words: Recrudescence assay. The format is cell-based, Plasmodium falciparum. Particulars: 48 h exposure; 2.5 µM 3i or 18 µM ART; log-rank Mantel-Cox test. The protocol:
Recrudescence assay was performed to evaluate the ability of the F32-ART5 parasites to survive drug exposure comparatively to the F32-TEM parasites. D-sorbitol synchronized ring-stages at 3% parasitemia (2% hematocrit) were exposed to drug for 48 h. After drug exposure, parasite cultures were washed with RPMI-1640 medium and replaced in normal drug-free culture conditions. The time to parasite recrudescence was determined as the time required to reach the 3% initial parasitemia. […] Each experiment was performed for F32-ART5 and F32-TEM and cultivated in parallel in the same conditions to generate paired results. This was carried out at least three times independently. A statistical analysis (log-rank Mantel–Cox test) was carried out on data thanks to a Kaplan–Meier survival analysis (using GraphPad Prism software) considering censored data.
Figure S48. 13C NMR spectrum of 2i in CDCl3, on a Bruker ARX 101 spectrometer
2. […]
(§1) 3. Studying the effect of (3i) on the liver stage development of P. falciparum Cryopreserved primary human hepatocytes were seeded in 96 well plates with a pre-determined seeding dose that gave a single dense layer of attached hepatocytes. […]
(§2) The culture medium with or without drugs was refreshed every 48 hours and two independent plates were studied. […] Plates were subjected to quantification using an automated plate scanner. […]

In assay [2] the test system is quiescent ART-resistant F32-ART5 parasites. Briefly: Quiescent-stage survival assay (QSA). The format is cell-based, Plasmodium falciparum. Particulars: F32-ART5, DHA 700 nM 6 h then DHA + 3i 2.5 or 5 µM 48 h. On the procedure: Chemosensitivity evaluation of ART-resistant parasites at the quiescent stage was performed on the strain F32-ART5 thanks to the quiescent-stage survival assay (QSA). D-sorbitol synchronized ring-stages parasites at 3% parasitemia (2% hematocrit) were first exposed to 700 nM of dihydroartemisinin (DHA) for 6 h to induce quiescence of artemisinin-resistant parasites. Then, quiescent parasites were exposed or not (as control condition) to the drug to be tested for 48 h. After drug exposure, parasite cultures were washed with RPMI-1640 medium and replaced in normal drug-free culture conditions. The time to parasite recrudescence was determined as the time required to reach the 3% initial parasitemia. […] In each experiment, results obtained with the condition “DHA 6 h/DHA 48 h” were compared to those obtained with the condition “DHA 6 h/(DHA + drug to be tested) 48 h” in order to determine the delay in recrudescence time. […]
as §1, §2

For the compound `O=[N+]([O-])c1ccc(Oc2nc3ccccc3nc2C(Cl)(Cl)Cl)cc1` [3i, 2-(4-Nitrophenoxy)-3-trichloromethylquinoxaline], in assay [1], the “Recrudescence of F32-ART5 compared with F32-TEM after drug exposure” value is given as “faster recrudescence”. The “Activity on quiescent ART-resistant parasites (delay in recrudescence time, QSA)” value in assay [2] is “did not present any activity”.

Source of the values: PMC8400257, “2-Phenoxy-3-Trichloromethylquinoxalines Are Antiplasmodial Derivatives with Activity against the Apicoplast of Plasmodium falciparum” (Pharmaceuticals, 2021).
